In paper PMC3833278, “De Novo Design of Protein Kinase Inhibitors by in Silico Identification of Hinge Region-Binding Fragments” (ACS Chemical Biology, 2013):
Each block holds one compound with its values, some of them ahead of it.

Columns and labels:
Format in all cases: biochemical
CK2 = target: T1, CK2 (Homo sapiens, UniProt P68400); assay: Radioactive (33P-ATP) filter-binding kinase assay, IC50
T1 construct: MRC Protein Phosphorylation Unit, University of Dundee (screening panel)
Procedure: (§1) Selected compounds were screened against a panel of mammalian kinases routinely run in the MRC Protein Phosphorylation Unit at the University of Dundee (www.kinase-screen.mrc.ac.uk).[21] Compounds were supplied in DMSO and screened in duplicates at 100 μM concentration using a radioactive (^33P-ATP) filter-binding-assay. For hit validation and all subsequent IC50 determinations, selected compounds were solubilized in DMSO at a top concentration of 51 mM and serially diluted to achieve 10-point titration of final assay concentrations from 1 mM to 30 nM. All IC50 determination assays were done in duplicate and the IC50 values were calculated using Prism (GraphPad Software, Inc.). All biochemical assays were run below the Km^app for the ATP for each enzyme allowing comparison of inhibition across the panel.

Src = target: T2, Src (Homo sapiens, UniProt P12931); assay: as above
T2 construct: MRC Protein Phosphorylation Unit, University of Dundee (screening panel)
Procedure: as §1

MAPKAP-K3 = target: T3, MAPKAP-K3 (Homo sapiens, UniProt Q16644); assay: as above
T3 construct: MRC Protein Phosphorylation Unit, University of Dundee (screening panel)
Procedure: as §1

RSK2 = target: T4, RSK2 (Homo sapiens, UniProt P51812); assay: as above
T4 construct: MRC Protein Phosphorylation Unit, University of Dundee (screening panel)
Procedure: as §1

SRPK1 = target: T5, SRPK1 (Homo sapiens, UniProt Q96SB4); assay: as above
T5 construct: MRC Protein Phosphorylation Unit, University of Dundee (screening panel)

FGF-R1 = target: T6, FGF-R1 (Homo sapiens, UniProt P11362); assay: as above
T6 construct: MRC Protein Phosphorylation Unit, University of Dundee (screening panel)
Procedure: as §1

EPH-B3 = target: T7, EPH-B3 (Homo sapiens, UniProt P54753); assay: as above
T7 construct: MRC Protein Phosphorylation Unit, University of Dundee (screening panel)
Procedure: as §1

SGK1 = target: T8, SGK1 (Homo sapiens, UniProt O00141); assay: as above
T8 construct: MRC Protein Phosphorylation Unit, University of Dundee (screening panel)
Procedure: as §1

GSK-3β = GSK-3β (Homo sapiens, UniProt P49841); assay: as above
MSK1 = target: T9, MSK1 (Homo sapiens, UniProt O75582); assay: Kinase panel screen at 100 μM, radioactive filter-binding assay
T9 construct: MRC Protein Phosphorylation Unit, University of Dundee (screening panel)
Procedure: (§2) A subset of library compounds was tested against a panel of 117 protein kinases as proof of concept study (Figure 4). The compounds were chosen to cover all six core fragments and to be fragment-sized (MW < 300 Da), therefore having a higher probability of inhibiting a kinase compared to more elaborated library compounds with the potential draw-back of having only moderate binding affinity.[25] […] According to these definitions, all assayed compounds were at least moderately active against at least one kinase (Figure 5a).
as §1

[1] = system: panel of 117 protein kinases; assay: as above; settings: for number of kinases inhibited with >40% inhibition: panel of 117 kinases; for number of kinases of the docking panel for which activity was found: only kinases in the docking panel
Procedure: as §2, §1

MKK1 = target: T10, MKK1 (Homo sapiens, UniProt Q02750); assay: as above
T10 construct: MRC Protein Phosphorylation Unit, University of Dundee (screening panel)
Procedure: as §2, §1

PIM3 = target: T11, PIM3 (Homo sapiens, UniProt Q86V86); assay: Radioactive (33P-ATP) filter-binding kinase assay, IC50
T11 construct: MRC Protein Phosphorylation Unit, University of Dundee (screening panel)
Procedure: as §1

PIM1 = target: T12, PIM1 (Homo sapiens, UniProt P11309); assay: as above
T12 construct: MRC Protein Phosphorylation Unit, University of Dundee (screening panel)
Procedure: as §1

VEG-FR = VEG-FR (Homo sapiens, UniProt P35968); assay: as above
YES1 = target: T13, YES1 (Homo sapiens, UniProt P07947); assay: as above
T13 construct: MRC Protein Phosphorylation Unit, University of Dundee (screening panel)
Procedure: as §1

IGF-1R = target: T14, IGF-1R (Homo sapiens, UniProt P08069); assay: as above
T14 construct: MRC Protein Phosphorylation Unit, University of Dundee (screening panel)
Procedure: as §1

TAK1 = target: T15, TAK1 (Homo sapiens, UniProt O43318); assay: as above
T15 construct: MRC Protein Phosphorylation Unit, University of Dundee (screening panel)
Procedure: as §1

GCK = target: T16, GCK (Homo sapiens, UniProt Q12851); assay: as above
T16 construct: MRC Protein Phosphorylation Unit, University of Dundee (screening panel)
Procedure: as §1

HER4 = target: T17, HER4 (Homo sapiens, UniProt Q15303); assay: as above
T17 construct: MRC Protein Phosphorylation Unit, University of Dundee (screening panel)
Procedure: as §1

CHK2 = target: T18, CHK2 (Homo sapiens, UniProt O96017); assay: as above
T18 construct: MRC Protein Phosphorylation Unit, University of Dundee (screening panel)
Procedure: as §1

CDK2 = CDK2 (Homo sapiens, UniProt P24941); assay: as above
CLK2 = CLK2 (Homo sapiens, UniProt P49760); assay: as above
Aurora A = target: T19, Aurora A (Homo sapiens, UniProt O14965); assay: as above
T19 construct: MRC Protein Phosphorylation Unit, University of Dundee (screening panel)
Procedure: as §1

T15 sequence (O43318 1-303 limits assumed): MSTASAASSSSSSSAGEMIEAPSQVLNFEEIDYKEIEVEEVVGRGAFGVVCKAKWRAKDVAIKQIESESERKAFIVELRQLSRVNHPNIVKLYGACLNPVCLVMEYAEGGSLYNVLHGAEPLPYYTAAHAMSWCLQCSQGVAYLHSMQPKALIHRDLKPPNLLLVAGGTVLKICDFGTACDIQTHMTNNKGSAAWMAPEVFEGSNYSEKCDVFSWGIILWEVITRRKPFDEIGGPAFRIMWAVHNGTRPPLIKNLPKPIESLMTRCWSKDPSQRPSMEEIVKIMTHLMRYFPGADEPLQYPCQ
T16 sequence (Q12851 whole entry): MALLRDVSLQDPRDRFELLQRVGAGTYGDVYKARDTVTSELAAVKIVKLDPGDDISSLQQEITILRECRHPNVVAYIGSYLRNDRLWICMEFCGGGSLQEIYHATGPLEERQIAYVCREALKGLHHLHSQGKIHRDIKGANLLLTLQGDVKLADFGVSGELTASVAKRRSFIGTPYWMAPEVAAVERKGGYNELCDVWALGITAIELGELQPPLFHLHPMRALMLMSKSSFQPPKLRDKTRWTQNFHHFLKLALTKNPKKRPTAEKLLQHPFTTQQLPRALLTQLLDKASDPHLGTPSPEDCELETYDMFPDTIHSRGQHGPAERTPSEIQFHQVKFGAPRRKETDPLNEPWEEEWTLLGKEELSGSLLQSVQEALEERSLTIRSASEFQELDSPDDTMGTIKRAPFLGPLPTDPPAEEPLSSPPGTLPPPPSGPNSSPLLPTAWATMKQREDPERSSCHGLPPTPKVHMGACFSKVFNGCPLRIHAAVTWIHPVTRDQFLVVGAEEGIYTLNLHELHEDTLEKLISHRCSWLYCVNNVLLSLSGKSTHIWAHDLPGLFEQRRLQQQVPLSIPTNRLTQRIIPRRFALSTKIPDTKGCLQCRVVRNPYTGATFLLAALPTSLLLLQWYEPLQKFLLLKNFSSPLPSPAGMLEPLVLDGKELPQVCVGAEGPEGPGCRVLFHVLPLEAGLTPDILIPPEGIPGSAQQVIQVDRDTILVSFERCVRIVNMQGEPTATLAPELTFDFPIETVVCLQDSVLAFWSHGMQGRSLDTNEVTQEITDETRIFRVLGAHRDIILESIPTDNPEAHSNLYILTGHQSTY
T2 sequence (P12931 whole entry, species assumed): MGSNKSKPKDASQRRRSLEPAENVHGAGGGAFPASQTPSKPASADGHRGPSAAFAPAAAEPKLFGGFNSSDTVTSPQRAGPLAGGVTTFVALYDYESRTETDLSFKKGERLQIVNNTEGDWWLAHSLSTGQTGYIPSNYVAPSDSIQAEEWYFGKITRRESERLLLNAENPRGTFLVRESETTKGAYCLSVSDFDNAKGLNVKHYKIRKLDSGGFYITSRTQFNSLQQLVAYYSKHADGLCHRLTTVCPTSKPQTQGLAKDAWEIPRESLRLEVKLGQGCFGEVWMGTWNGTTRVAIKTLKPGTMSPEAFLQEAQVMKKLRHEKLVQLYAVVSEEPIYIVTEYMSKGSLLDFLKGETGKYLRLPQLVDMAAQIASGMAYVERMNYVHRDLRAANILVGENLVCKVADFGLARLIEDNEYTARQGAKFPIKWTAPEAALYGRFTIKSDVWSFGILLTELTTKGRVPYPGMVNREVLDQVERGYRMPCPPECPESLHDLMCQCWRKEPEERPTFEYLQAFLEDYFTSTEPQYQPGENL
T6 sequence (P11362 22-822, species assumed): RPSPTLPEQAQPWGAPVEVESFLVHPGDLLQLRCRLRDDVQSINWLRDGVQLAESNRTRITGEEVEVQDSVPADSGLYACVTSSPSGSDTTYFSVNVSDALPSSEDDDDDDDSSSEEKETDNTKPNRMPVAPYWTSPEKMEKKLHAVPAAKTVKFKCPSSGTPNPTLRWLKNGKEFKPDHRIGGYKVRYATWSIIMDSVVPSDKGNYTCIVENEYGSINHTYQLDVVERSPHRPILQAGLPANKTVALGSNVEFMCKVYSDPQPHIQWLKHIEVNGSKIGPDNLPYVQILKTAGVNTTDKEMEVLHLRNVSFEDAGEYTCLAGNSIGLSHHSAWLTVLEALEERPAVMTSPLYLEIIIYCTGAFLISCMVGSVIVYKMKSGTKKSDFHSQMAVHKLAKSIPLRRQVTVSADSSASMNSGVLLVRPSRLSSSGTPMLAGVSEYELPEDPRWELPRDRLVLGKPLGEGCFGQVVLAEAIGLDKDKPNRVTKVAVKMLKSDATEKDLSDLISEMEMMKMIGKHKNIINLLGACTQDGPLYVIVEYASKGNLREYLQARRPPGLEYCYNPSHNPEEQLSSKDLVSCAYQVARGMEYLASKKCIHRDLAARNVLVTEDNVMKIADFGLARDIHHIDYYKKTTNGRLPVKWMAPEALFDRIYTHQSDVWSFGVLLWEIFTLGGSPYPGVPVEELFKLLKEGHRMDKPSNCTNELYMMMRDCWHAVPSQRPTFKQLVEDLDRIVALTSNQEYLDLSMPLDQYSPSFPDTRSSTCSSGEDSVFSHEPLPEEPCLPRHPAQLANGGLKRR
T1 sequence (P68400 whole entry): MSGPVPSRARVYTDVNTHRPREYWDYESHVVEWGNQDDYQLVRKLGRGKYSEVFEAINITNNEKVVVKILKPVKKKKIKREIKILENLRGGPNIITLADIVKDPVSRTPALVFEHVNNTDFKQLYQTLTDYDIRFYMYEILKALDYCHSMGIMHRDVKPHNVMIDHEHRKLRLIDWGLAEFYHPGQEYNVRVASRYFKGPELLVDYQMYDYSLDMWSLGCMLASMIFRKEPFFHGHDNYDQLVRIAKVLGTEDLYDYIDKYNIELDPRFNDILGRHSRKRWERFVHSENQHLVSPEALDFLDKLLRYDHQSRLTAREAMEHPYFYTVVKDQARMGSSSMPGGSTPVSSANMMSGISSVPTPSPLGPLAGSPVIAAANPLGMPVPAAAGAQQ
T14 sequence (P08069 31-1367, species assumed): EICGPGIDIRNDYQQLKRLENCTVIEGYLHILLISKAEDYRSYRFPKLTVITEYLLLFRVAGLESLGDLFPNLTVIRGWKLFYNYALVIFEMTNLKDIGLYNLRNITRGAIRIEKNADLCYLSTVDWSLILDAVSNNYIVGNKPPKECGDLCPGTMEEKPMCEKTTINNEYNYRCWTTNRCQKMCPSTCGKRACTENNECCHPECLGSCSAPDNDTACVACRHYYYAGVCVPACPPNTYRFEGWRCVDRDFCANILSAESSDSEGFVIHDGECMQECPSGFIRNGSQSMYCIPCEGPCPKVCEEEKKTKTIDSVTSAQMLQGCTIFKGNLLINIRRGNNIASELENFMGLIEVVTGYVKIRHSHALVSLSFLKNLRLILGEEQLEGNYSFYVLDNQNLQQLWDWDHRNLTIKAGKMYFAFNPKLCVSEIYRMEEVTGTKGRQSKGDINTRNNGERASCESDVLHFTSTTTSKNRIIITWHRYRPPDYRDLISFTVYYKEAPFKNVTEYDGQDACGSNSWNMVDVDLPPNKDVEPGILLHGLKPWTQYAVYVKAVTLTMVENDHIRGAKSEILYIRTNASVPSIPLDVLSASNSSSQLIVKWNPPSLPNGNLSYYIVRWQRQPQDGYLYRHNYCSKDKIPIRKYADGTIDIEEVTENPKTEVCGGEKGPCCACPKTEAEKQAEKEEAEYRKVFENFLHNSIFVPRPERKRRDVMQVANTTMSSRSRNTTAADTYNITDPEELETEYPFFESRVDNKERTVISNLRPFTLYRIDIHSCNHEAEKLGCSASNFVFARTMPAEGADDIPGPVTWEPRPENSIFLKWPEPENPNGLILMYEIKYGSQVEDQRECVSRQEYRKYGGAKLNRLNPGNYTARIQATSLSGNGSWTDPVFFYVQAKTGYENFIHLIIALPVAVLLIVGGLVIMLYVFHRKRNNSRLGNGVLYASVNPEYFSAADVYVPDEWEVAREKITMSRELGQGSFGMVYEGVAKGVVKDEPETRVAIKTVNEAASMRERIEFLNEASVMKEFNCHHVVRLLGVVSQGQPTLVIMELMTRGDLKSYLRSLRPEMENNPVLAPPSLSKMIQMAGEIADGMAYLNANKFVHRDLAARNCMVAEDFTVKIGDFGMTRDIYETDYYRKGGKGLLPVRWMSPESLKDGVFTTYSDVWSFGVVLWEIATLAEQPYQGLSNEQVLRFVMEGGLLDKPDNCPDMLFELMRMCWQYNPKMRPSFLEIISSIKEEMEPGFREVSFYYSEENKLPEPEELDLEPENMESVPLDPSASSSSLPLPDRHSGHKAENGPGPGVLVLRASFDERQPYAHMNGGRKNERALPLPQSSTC
Chain of CLK2 (P49760 whole entry, species assumed): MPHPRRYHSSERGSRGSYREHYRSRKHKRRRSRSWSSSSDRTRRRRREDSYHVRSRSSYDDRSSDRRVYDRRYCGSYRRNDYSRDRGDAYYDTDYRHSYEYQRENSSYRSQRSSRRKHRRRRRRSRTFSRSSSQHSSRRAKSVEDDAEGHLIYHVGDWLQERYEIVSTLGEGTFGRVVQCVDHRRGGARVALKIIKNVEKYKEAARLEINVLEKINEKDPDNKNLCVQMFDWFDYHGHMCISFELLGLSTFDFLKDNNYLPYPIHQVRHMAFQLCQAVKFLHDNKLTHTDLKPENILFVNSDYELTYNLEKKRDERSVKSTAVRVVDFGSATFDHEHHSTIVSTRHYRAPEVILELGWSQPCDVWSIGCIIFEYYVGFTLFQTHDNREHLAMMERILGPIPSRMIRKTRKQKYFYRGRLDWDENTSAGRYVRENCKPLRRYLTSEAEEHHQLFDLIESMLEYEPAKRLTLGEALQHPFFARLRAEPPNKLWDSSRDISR
T12 sequence (P11309 whole entry, species assumed): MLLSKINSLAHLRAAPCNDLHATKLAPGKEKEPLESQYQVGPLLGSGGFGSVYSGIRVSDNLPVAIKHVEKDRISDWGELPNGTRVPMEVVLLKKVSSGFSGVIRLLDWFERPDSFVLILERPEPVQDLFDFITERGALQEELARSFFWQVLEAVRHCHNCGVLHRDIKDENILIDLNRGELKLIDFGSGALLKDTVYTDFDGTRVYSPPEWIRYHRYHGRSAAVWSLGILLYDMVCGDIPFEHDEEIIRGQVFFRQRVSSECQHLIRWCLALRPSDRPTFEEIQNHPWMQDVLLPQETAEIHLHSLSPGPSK

Compound: CC(C)(C)Nc1c(C2CC2)nc2[nH]cnn12 [D1]
LE (FGF-R1): 0.29 kcal/mol heavy atom
LE (EPH-B3): 0.33 kcal/mol heavy atom

Compound: COc1ccc(-c2cc3c(=O)[nH]cnc3s2)cc1OC [C2]
LE (SGK1): 0.28 kcal/mol heavy atom
LE (GSK-3β): 0.32 kcal/mol heavy atom

Compound: O=C(Nc1cnc2[nH]cnn2c1=O)c1ccccc1 [E1]
inhibition at 100 µM (MSK1): > 40%
number of kinases inhibited with >40% inhibition [1]: one

Compound: CC(=O)Nc1nc2cnc(-c3c(C)cccc3C)cn2n1 [B4]
number of kinases of the docking panel for which activity was found [1]: did not inhibit any kinase in the docking panel

Compound: O=c1c(NC(=S)NCc2ccccc2)cnc2[nH]ccn12 [F2]
inhibition at 100 µM (MKK1): > 40%
number of kinases inhibited with >40% inhibition [1]: one

The next lines start with the values.

LE (CK2): 0.33 kcal/mol heavy atom
LE (Src): 0.28 kcal/mol heavy atom
LE (MAPKAP-K3): 0.33 kcal/mol heavy atom
LE (RSK2): 0.26 kcal/mol heavy atom
LE (SRPK1): 0.28 kcal/mol heavy atom
Compound: CC1CN(c2nc3ccccn3c(=O)c2N)CC(C)O1 (centres unmarked) [A1]

LE (PIM3): 0.40 kcal/mol heavy atom
LE (PIM1): 0.38 kcal/mol heavy atom
Compound: O=c1cc(-c2ccccc2F)nc2[nH]ccn12 [F3]

number of kinases of the docking panel for which activity was found [1]: 31
number of kinases inhibited with >40% inhibition [1]: 63
LE (VEG-FR): 0.39 kcal/mol heavy atom
LE (YES1): 0.41 kcal/mol heavy atom
LE (IGF-1R): 0.40 kcal/mol heavy atom
LE (TAK1): 0.43 kcal/mol heavy atom
LE (GCK): 0.46 kcal/mol heavy atom
LE (HER4): 0.41 kcal/mol heavy atom
LE (Src): 0.41 kcal/mol heavy atom
LE (CHK2): 0.42 kcal/mol heavy atom
Compound: Nc1nc2cnc(-c3ccccc3)cn2n1 [B1]

number of kinases inhibited with >40% inhibition [1]: 55
LE (CDK2): 0.33 kcal/mol heavy atom
LE (CLK2): 0.32 kcal/mol heavy atom
LE (Aurora A): 0.26 kcal/mol heavy atom
LE (IGF-1R): 0.30 kcal/mol heavy atom
LE (CK2): 0.27 kcal/mol heavy atom
LE (TAK1): 0.32 kcal/mol heavy atom
LE (GCK): 0.38 kcal/mol heavy atom
LE (FGF-R1): 0.25 kcal/mol heavy atom
Compound: Nc1cnc2c(-c3c(F)cccc3F)cccn2c1=O [A2]
